Experimental data as given in paper PMC12434667 (Journal of Medicinal Chemistry, 2025).
≈ marks a conversion by molar mass, not a printed value. Each block holds one molecule with its values, some of them ahead of it.

How the values were obtained:
CDK2/CRBN = CDK2/CRBN (Homo sapiens, UniProt P24941+Q96SW2); test: AlphaLisa ternary complex formation assay; assay type: binding; details: compound 28 used as 100% control
CDK2 = CDK2 (Homo sapiens, UniProt P24941); test: 14-hr AlphaLISA of CDK2 degradation in MKN1 CCNE1amp cells; assay type: cell-based; details: read-out: MKN1 CDK2 DC50
FaSSIF solubility = assay type: physicochemical; details: kinetic from dmso stock
[1] = MDCK passive permeability; assay type: in vitro ADME, canine; details: dog, pH 7.4
MDR1 = MDR1 (Homo sapiens, UniProt P08183); test: MDCK-MDR1 efflux ratio; assay type: in vitro ADME; details: dog, MDCK-MDR1, pH 7.4
Sequence of MDR1 (P08183 whole entry, species assumed): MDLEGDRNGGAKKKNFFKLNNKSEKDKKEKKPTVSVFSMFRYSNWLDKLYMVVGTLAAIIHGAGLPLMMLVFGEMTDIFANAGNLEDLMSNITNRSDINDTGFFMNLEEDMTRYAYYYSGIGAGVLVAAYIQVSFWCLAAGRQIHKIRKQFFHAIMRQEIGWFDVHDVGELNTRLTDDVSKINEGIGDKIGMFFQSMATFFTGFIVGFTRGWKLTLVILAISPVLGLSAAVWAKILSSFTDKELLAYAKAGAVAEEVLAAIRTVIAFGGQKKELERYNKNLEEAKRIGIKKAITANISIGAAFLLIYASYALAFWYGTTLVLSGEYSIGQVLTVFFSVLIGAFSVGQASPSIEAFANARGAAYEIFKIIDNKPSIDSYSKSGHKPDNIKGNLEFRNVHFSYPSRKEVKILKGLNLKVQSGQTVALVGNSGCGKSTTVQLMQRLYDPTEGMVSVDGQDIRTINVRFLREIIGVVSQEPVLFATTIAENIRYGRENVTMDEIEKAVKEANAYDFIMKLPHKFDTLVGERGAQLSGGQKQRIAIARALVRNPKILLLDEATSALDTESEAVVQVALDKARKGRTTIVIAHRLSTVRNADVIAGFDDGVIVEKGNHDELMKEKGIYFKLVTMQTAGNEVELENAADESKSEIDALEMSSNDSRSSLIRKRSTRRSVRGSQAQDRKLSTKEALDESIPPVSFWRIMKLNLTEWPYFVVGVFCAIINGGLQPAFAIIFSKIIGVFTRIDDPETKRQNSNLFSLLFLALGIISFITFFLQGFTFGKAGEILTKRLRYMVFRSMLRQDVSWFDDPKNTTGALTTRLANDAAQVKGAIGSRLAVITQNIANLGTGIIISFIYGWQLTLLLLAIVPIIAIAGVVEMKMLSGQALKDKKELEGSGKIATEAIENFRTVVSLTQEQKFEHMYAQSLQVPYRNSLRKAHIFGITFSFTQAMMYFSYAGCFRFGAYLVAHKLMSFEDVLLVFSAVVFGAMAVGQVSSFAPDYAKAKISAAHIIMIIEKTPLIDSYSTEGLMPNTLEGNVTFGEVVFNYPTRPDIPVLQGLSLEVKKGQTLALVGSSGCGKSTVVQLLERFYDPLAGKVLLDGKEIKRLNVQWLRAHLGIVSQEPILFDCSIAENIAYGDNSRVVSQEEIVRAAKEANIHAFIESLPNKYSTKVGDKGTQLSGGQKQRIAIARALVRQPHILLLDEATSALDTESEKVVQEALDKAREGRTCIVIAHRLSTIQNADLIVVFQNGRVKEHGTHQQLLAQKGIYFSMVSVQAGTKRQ

Microsomal stability [2] = assay type: in vitro ADME; details: rat, liver microsomes
LogD = assay type: physicochemical; details: 1-octanol/phosphate buffer, pH 7.4
Microsomal stability [3] = assay type: in vitro ADME; details: human, liver microsomes
CDK1/cyclinB1 = CDK1/cyclinB1 (Homo sapiens, UniProt P06493); details: biochemical IC50 vs CDK2
Sequence of CDK1/cyclinB1 (P14635 whole entry): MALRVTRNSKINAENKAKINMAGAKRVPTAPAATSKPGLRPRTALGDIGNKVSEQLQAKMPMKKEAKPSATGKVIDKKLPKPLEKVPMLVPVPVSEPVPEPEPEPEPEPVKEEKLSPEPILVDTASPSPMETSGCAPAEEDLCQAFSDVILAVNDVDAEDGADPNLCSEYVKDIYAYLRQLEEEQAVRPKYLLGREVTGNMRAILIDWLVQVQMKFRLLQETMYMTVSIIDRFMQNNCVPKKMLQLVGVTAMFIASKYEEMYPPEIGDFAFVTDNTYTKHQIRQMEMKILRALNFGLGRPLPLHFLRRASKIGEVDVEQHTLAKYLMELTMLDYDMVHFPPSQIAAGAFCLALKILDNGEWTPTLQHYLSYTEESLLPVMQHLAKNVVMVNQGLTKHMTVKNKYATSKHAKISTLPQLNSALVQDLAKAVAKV
Sequence of CDK1/cyclinB1 (P06493 whole entry): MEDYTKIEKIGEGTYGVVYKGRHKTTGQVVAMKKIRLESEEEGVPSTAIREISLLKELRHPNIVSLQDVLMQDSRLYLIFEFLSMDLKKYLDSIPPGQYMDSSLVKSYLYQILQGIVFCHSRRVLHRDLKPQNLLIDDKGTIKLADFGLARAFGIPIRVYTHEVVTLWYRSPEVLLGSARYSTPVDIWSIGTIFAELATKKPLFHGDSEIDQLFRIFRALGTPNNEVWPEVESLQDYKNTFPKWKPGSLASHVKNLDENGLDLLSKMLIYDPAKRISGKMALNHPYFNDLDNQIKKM

CDK9/CyclinT1 = CDK9/CyclinT1 (Homo sapiens, UniProt P50750); test: Biochemical enzymatic inhibition assay; details: biochemical IC50 vs CDK2
[4] = test system: panel of nonmutant kinases; test: Kinomescan panel; assay type: binding; details: for kinases tested showing >90% inhibition versus control: 1 μM, panel of 403 nonmutant kinases; for kinomescan S(10) score: 1 uM, nonmutant kinases with % Ctrl <10 / nonmutant kinases tested
CYP3A4 = CYP3A4 (Homo sapiens, UniProt P08684); test: Cyp3A4 TDI; assay type: in vitro ADME
Sequence of CYP3A4 (P08684 whole entry): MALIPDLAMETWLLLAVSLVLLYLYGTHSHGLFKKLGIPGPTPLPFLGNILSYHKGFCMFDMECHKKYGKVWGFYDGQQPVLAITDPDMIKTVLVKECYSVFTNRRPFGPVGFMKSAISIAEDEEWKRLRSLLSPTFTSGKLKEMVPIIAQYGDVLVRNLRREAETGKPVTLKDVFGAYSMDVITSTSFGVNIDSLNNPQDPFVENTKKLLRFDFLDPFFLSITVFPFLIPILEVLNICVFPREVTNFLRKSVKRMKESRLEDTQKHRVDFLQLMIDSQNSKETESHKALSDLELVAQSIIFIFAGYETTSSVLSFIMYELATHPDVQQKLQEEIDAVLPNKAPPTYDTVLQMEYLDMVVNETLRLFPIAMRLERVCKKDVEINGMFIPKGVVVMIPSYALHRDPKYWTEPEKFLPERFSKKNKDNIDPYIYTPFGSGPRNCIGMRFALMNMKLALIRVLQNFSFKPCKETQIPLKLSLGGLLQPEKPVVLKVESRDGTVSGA

Rat PK = assay type: in vivo; details: in vivo; for Vd / clearance / half-life: iv, 2 mg/kg; for bioavailability: oral, 10 mg/kg
HCC1569 tumor xenograft = HCC1569 tumor xenograft efficacy; assay type: in vivo, mouse; details: 150 mg/kg PO BID, 28 days
CDK6/CyclinD3 = CDK6/CyclinD3 (Homo sapiens, UniProt Q00534); test: Biochemical enzymatic inhibition assay; details: biochemical IC50 vs CDK2
Sequence of CDK6/CyclinD3 (Q00534 whole entry): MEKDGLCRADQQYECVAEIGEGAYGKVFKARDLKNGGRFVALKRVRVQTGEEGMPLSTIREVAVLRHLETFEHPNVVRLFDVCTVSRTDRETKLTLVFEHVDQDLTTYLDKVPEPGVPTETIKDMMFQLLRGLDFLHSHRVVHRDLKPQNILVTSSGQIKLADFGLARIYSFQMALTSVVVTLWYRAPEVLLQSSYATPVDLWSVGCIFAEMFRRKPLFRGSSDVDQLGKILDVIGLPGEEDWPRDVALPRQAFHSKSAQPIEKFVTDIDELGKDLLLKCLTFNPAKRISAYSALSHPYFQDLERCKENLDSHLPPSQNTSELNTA
Sequence of CDK6/CyclinD3 (P30281 whole entry partner): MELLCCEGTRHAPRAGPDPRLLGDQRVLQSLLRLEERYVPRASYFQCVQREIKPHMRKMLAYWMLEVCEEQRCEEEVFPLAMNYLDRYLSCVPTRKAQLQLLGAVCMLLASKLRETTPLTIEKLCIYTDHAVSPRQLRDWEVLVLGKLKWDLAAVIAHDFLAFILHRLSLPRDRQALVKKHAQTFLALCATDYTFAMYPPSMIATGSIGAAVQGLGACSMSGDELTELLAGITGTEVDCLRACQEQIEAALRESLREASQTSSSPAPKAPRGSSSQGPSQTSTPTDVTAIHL

CDK4/CyclinD3 = CDK4/CyclinD3 (Homo sapiens, UniProt P11802); test: Biochemical enzymatic inhibition assay; details: biochemical IC50 vs CDK2
Sequence of CDK4/CyclinD3 (P11802 whole entry): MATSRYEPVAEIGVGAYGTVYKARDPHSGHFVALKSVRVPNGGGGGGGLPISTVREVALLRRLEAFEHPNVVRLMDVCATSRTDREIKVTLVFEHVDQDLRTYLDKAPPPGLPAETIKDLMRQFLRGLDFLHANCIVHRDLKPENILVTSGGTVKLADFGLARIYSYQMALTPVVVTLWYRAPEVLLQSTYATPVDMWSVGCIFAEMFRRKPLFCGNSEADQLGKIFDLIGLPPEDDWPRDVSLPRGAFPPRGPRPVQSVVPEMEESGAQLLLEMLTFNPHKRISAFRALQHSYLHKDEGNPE
Sequence of CDK4/CyclinD3 (P30281 whole entry partner): as the sequence (P30281 whole entry partner) above

[5] = CYP3A4 TDI (+NADPH), 30 min pre-incubation with NADPH
[6] = CYP3A4 TDI (-NADPH), 30 min pre-incubation without NADPH

Sequence of CDK2/CRBN (Q16531 whole entry): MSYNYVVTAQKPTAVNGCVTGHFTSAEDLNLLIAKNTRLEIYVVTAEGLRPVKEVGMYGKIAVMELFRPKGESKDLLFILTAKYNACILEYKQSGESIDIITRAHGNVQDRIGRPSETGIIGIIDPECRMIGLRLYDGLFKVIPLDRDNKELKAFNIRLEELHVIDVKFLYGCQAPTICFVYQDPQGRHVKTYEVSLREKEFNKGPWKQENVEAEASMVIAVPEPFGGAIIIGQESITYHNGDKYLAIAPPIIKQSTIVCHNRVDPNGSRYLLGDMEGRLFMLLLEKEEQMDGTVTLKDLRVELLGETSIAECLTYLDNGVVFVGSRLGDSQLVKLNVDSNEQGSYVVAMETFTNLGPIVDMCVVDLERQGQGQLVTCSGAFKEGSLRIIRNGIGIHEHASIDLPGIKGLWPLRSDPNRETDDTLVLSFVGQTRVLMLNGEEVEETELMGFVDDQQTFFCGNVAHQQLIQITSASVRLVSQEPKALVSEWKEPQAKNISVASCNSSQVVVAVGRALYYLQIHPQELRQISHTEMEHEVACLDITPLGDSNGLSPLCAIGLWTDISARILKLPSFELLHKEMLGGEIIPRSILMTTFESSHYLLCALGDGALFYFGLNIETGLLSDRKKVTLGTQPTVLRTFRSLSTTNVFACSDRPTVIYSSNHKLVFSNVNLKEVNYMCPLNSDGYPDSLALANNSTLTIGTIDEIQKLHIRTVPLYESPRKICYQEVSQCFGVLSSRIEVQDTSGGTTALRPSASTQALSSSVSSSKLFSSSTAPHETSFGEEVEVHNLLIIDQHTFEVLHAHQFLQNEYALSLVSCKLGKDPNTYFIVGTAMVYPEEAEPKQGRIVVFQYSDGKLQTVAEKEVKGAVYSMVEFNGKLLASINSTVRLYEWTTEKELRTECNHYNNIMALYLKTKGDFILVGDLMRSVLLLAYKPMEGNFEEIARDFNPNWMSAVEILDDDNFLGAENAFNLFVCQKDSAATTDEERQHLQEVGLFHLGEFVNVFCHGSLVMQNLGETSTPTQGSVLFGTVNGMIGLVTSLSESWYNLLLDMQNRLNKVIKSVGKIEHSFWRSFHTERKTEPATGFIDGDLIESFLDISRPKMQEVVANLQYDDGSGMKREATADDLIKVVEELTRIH
Sequence of CDK2/CRBN (Q96SW2 40-442): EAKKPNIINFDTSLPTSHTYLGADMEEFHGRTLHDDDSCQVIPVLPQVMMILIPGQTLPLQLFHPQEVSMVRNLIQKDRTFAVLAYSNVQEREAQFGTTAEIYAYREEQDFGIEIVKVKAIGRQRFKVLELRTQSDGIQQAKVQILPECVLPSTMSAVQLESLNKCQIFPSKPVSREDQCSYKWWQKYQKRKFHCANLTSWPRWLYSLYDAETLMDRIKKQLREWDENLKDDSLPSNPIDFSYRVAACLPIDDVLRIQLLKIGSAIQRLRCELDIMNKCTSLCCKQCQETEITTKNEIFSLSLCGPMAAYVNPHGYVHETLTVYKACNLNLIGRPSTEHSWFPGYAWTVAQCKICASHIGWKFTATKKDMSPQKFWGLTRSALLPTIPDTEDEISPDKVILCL

CDK2/CRBN/degrader ternary complex normalized AUC (CDK2/CRBN): 0
SMILES: Cc1cc(S(=O)(=O)N[C@H]2C[C@H](CN3CC(c4ccc(C5CCC(=O)NC5=O)c(Cl)c4)C3)C2)ccc1Nc1ncc(C(F)(F)F)c(N2CCC[C@](C)(O)C2)n1 (stereo partly shown) [Compound 22]

DC50 (CDK2): 1 nM | solubility at 2 h (FaSSIF solubility): 62 µM (≈ 59.5 µg/mL) | Papp A→B at 120 min, 1 µM [1]: 2.3 ×10⁻⁶ cm/s | efflux ratio at 120 min, 1 μM (MDR1): 91 | CLint scaled at 1 µM (Microsomal stability [2]): 25 mL/min/kg | logD at 1 h (LogD): 4.6 | CLint scaled at 1 µM (Microsomal stability [3]): 143 mL/min/kg
SMILES: [2H][C@@](C)(COC1CCC(CN2CCN(c3ccc4c(c3F)n(C)c(=O)n4C3CCC(=O)NC3=O)CC2)CC1)NS(=O)(=O)c1ccc(Nc2ncc(C(F)(F)F)c(N3CCC[C@](C)(O)C3)n2)c(C)c1 (stereo partly shown) [Compound 13]

CDK2/CRBN/degrader ternary complex normalized AUC (CDK2/CRBN): 35
SMILES: Cc1cc(S(=O)(=O)N[C@H]2CC[C@H](CN3CCN(c4ccc(NC5CCC(=O)NC5=O)cc4F)CC3)CC2)ccc1Nc1ncc(C(F)(F)F)c(N2CCC[C@](C)(O)C2)n1 (stereo partly shown) [Compound 27]

selectivity vs CDK1 (CDK1/cyclinB1): 16 fold
SMILES: CNS(=O)(=O)c1ccc(Nc2ncc(C(F)(F)F)c([C@H]3CC[C@](C)(O)CC3)n2)c(C)c1 [Compound 4, trans-4-[[4-(4-Hydroxy-4-methyl-cyclohexyl)-5-(trifluoromethyl)pyrimidin-2-yl]amino]-N,3-dimethyl-benzenesulfonamide]

selectivity vs CDK9 (CDK9/CyclinT1): > 357 fold | selectivity vs CDK1 (CDK1/cyclinB1): 47 fold
SMILES: CNS(=O)(=O)c1ccc(Nc2ncc(C(F)(F)F)c([C@H]3CC[C@@](C)(O)CC3)n2)c(C)c1 [Compound 3]
kinases tested showing >90% inhibition versus control [4]: 2/403

IC50 (CYP3A4; [5]): > 10000 nM | IC50 (CYP3A4; [6]): > 10000 nM
SMILES: C[C@]1(O)CCCN(c2nc(Nc3ccc(S(=O)(=O)N[C@H]4CC[C@H](CN5CCN(c6ccc(C7CCC(=O)NC7=O)cc6F)CC5)CC4)cc3F)ncc2C(F)(F)F)C1 (stereo partly shown) [Compound 31]
kinomescan S(10) score [4]: 0

Vd (Rat PK): 15 L/kg | clearance (Rat PK): 59 mL/min/kg | half-life (Rat PK): 5.7 h | bioavailability (Rat PK): 1% | DC50 (CDK2): 4.9 nM | solubility at 2 h (FaSSIF solubility): 153 µM (≈ 142 µg/mL) | Papp A→B at 120 min, 1 µM [1]: 1 ×10⁻⁶ cm/s | efflux ratio at 120 min, 1 μM (MDR1): > 30 | CLint scaled at 1 µM (Microsomal stability [2]): < 21 mL/min/kg | logD at 1 h (LogD): 4.1 | CLint scaled at 1 µM (Microsomal stability [3]): 79 mL/min/kg
SMILES: Cc1cc(S(=O)(=O)NCCO[C@H]2CC[C@H](CN3CCC(c4ccc5c(c4)n(C)c(=O)n5C4CCC(=O)NC4=O)CC3)CC2)ccc1Nc1ncc(C(F)(F)F)c([C@H]2CC[C@@](C)(O)CC2)n1 (stereo partly shown) [Compound 8]

CDK2/CRBN/degrader ternary complex normalized AUC (CDK2/CRBN): 7.9
SMILES: Cc1cc(S(=O)(=O)NC2CC(N3CC[C@@H](OC4CN(c5cccc6c5n(C)c(=O)n6C5CCC(=O)NC5=O)C4)[C@H](F)C3)C2)ccc1Nc1ncc(C(F)(F)F)c(N2CCC[C@](C)(O)C2)n1 (stereo partly shown) [Compound 20]

CDK2/CRBN/degrader ternary complex normalized AUC (CDK2/CRBN): 4.8
SMILES: Cc1cc(S(=O)(=O)N[C@H]2C[C@H](CN3CCN(c4ccc(C5CCC(=O)NC5=O)c(Cl)c4)CC3)C2)ccc1Nc1ncc(C(F)(F)F)c(N2CCC[C@](C)(O)C2)n1 (stereo partly shown) [Compound 23]

IC50 (CYP3A4; [5]): > 10000 nM | IC50 (CYP3A4; [6]): > 10000 nM
SMILES: C[C@]1(O)CCCN(c2nc(Nc3ccc(S(=O)(=O)N[C@H]4CC[C@H](CN5CCN(c6ccc(C7CCC(=O)NC7=O)cc6F)CC5)CC4)cc3Cl)ncc2C(F)(F)F)C1 (stereo partly shown) [Compound 32]
kinomescan S(10) score [4]: 0

CDK2/CRBN/degrader ternary complex normalized AUC (CDK2/CRBN): 4.0
SMILES: Cc1cc(S(=O)(=O)NC2CC(N3CCN(CC4CCN(c5ccc(NC6CCC(=O)NC6=O)cc5C)CC4)CC3)C2)ccc1Nc1ncc(C(F)(F)F)c(N2CCC[C@](C)(O)C2)n1 (stereo partly shown) [Compound 21]

CDK2/CRBN/degrader ternary complex normalized AUC (CDK2/CRBN): 10
SMILES: Cc1cc(S(=O)(=O)N[C@H]2CC[C@H](N3CCN(CC4CCN(c5cccc6c5n(C)c(=O)n6C5CCC(=O)NC5=O)CC4)CC3)CC2)ccc1Nc1ncc(C(F)(F)F)c(N2CCC[C@](C)(O)C2)n1 (stereo partly shown) [Compound 14]

SMILES: COCc1cc(C(=O)Nc2cc([C@H]3CC[C@@H](OC(=O)NC(C)C)C3)[nH]n2)n(C)n1 [PF-07104091, reference compound]
antitumor activity (HCC1569 tumor xenograft): stable disease (30 to −30% is stable disease (0% = Tumor Stasis)) | day 28 %dTV (mean ± SEM) (HCC1569 tumor xenograft; HCC1569 xenograft mice): 4 ± 15%

SMILES: Cc1cc(S(=O)(=O)N[C@H]2CC[C@H](CN3CCN(c4ccc(C5CCC(=O)NC5=O)cc4F)CC3)CC2)ccc1Nc1ncc(C(F)(F)F)c(N2CCC[C@](C)(O)C2)n1 (stereo partly shown) [Compound 29]
kinomescan S(10) score [4]: 0.007

CDK2/CRBN/degrader ternary complex normalized AUC (CDK2/CRBN): 9.5
SMILES: Cc1cc(S(=O)(=O)NC2CC(N3CCN(CC4CCN(c5cccc6c5n(C)c(=O)n6C5CCC(=O)NC5=O)CC4)CC3)C2)ccc1Nc1ncc(C(F)(F)F)c(N2CCC[C@](C)(O)C2)n1 (stereo partly shown) [Compound 15]

CDK2/CRBN/degrader ternary complex normalized AUC (CDK2/CRBN): 27
SMILES: Cc1cc(S(=O)(=O)NC2CC(N3CCN(CC4CCN(c5cccc6c5n(C)c(=O)n6C5CCC(=O)NC5=O)CC4)C4(CC4)C3)C2)ccc1Nc1ncc(C(F)(F)F)c(N2CCC[C@](C)(O)C2)n1 (stereo partly shown) [Compound 19]

CDK2/CRBN/degrader ternary complex normalized AUC (CDK2/CRBN): 100
SMILES: Cc1cc(S(=O)(=O)N[C@H]2CC[C@H](CN3CCN(c4cccc(NC5CCC(=O)NC5=O)c4)CC3)CC2)ccc1Nc1ncc(C(F)(F)F)c(N2CCC[C@](C)(O)C2)n1 (stereo partly shown) [Compound 28]

CYP3A4 inhibition (in words) (CYP3A4): time- and NADPH-dependent inhibition | CDK2/CRBN/degrader ternary complex normalized AUC (CDK2/CRBN): 92
SMILES: Cc1cc(S(=O)(=O)N[C@H]2CC[C@H](CN3CCN(c4ccc(C5CCC(=O)NC5=O)c(Cl)c4)CC3)CC2)ccc1Nc1ncc(C(F)(F)F)c(N2CCC[C@](C)(O)C2)n1 (stereo partly shown) [Compound 24]

selectivity over CDK6 (CDK6/CyclinD3): > 124 fold | selectivity over CDK4 (CDK4/CyclinD3): > 44 fold
SMILES: CNS(=O)(=O)c1ccc(Nc2ncc3cc(Cl)c(=O)n(C4CCCC4)c3n2)c(C)c1 [Compound 1]
kinases tested showing >90% inhibition versus control [4]: 18/403

selectivity vs CDK9 (CDK9/CyclinT1): > 5000 fold | selectivity vs CDK1 (CDK1/cyclinB1): 42 fold
SMILES: CNS(=O)(=O)c1ccc(Nc2ncc(C(F)(F)F)c(N3CCC[C@](C)(O)C3)n2)c(C)c1 [Compound 7]
kinases tested showing >90% inhibition versus control [4]: 4/403

CDK2/CRBN/degrader ternary complex normalized AUC (CDK2/CRBN): 0
SMILES: Cc1cc(S(=O)(=O)NC2CCC(CN3CCN(c4cccc(C5CCC(=O)NC5=O)c4)CC3)CC2)ccc1Nc1ncc(C(F)(F)F)c(N2CCC[C@](C)(O)C2)n1 (stereo partly shown) [Compound 26]

Vd (Rat PK): 11 L/kg | clearance (Rat PK): 45 mL/min/kg | half-life (Rat PK): 4.9 h | bioavailability (Rat PK): 5% | DC50 (CDK2): 12 nM | solubility at 2 h (FaSSIF solubility): 173 µM (≈ 163 µg/mL) | Papp A→B at 120 min, 1 µM [1]: 2 ×10⁻⁶ cm/s | efflux ratio at 120 min, 1 μM (MDR1): > 54 | CLint scaled at 1 µM (Microsomal stability [2]): 26 mL/min/kg | logD at 1 h (LogD): 4.6 | CLint scaled at 1 µM (Microsomal stability [3]): 102 mL/min/kg
SMILES: Cc1cc(S(=O)(=O)NCCO[C@H]2CC[C@H](CN3CCC(c4ccc5c(c4F)n(C)c(=O)n5C4CCC(=O)NC4=O)CC3)CC2)ccc1Nc1ncc(C(F)(F)F)c([C@H]2CC[C@@](C)(O)CC2)n1 (stereo partly shown) [Compound 9]

CDK2/CRBN/degrader ternary complex normalized AUC (CDK2/CRBN): 13
SMILES: Cc1cc(S(=O)(=O)N[C@]2(C)C[C@@H](N3CCN(CC4CCN(c5ccc6c(c5F)n(C)c(=O)n6C5CCC(=O)NC5=O)CC4)CC3)C2)ccc1Nc1ncc(C(F)(F)F)c(N2CCC[C@](C)(O)C2)n1 (stereo partly shown) [Compound 17]
